Experimental data: publication PMC4503722, “Novel Phenotypic Outcomes Identified for a Public Collection of Approved Drugs from a Publicly Accessible Panel of Assays” (PLoS ONE, 2015)
Like-named read-outs stand apart in the source and are kept apart here.

Tests used:
Colo320 = assay: cells; format: cell-based
HeLa cells = assay: cells; format: cell-based; conditions: for EC50: read-out: CellCycle G2/M;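 as to Hela CellCycMod PI 4N summarized IC50: value tracks stimulation of 4N DNA content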
[1] = system: HCT116 cells treated with a GSK3β inhibitor; assay: cells; format: cell-based
RKO = assay: cells; format: cell-based
HCT116 = assay: cells; format: cell-based
SW480 = assay: cells; format: cell-based
INS-1E cells = assay: cells; format: cell-based, rat
DLD-1 = assay: cells; format: cell-based
SNU-C1 = assay: cells; format: cell-based
NCI-H716 cells = assay: cells; format: cell-based, Human
HT-29 = assay: cells; format: cell-based
[2] = system: nuclear β-catenin in C2C12 cells; assay: cells; format: cell-based
[3] = system: endothelial tube formation in co-cultures of ECFCs and ADSCs treated with VEGF; assay: cells; format: cell-based, human
hKDR = biological target: T1, hKDR (Homo sapiens, UniProt P35968); assay: Cerep LANCE kinase assay hKDR (S1 assay 32); format: biochemical; conditions: read-out: hKDR LANCE summarized IC50
T1 construct: purchased Cerep (LANCE kinase assay platform, contract assay)
T1 sequence (P35968 20-1356): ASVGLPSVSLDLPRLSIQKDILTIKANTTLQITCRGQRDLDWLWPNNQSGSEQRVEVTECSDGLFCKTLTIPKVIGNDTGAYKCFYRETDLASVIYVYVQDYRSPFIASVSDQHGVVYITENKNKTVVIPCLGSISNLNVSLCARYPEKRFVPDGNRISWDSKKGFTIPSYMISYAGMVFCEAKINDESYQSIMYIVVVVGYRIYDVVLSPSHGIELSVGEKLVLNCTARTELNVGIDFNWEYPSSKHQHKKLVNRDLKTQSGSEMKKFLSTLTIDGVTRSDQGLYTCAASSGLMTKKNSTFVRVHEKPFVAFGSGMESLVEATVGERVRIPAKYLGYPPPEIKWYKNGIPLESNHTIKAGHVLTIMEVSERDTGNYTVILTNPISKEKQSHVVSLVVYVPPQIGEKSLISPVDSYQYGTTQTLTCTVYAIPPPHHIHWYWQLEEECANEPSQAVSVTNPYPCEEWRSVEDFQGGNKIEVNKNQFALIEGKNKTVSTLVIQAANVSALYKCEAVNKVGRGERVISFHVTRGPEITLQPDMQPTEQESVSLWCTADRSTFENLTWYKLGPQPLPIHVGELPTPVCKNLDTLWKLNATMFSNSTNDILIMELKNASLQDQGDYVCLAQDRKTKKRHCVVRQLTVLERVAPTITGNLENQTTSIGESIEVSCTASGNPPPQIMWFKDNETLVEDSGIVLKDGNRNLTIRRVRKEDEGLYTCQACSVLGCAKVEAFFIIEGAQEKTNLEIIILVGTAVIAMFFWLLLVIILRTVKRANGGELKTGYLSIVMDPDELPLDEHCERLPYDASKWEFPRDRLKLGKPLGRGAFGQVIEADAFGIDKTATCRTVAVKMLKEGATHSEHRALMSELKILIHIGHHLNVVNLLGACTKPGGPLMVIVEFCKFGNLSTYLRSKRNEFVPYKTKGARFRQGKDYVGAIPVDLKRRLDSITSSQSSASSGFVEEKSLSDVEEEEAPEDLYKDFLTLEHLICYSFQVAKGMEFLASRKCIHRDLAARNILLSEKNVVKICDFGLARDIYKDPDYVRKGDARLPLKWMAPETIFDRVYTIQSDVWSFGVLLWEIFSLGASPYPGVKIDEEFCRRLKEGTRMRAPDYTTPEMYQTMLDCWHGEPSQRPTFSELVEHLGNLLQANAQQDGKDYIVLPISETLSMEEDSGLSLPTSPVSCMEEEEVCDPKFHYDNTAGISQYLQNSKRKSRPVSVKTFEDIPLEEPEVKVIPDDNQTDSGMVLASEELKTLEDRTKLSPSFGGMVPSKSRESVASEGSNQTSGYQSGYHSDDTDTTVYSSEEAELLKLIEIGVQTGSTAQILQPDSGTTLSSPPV

hFLT3 = biological target: T2, hFLT3 (Homo sapiens, UniProt P36888); assay: Cerep LANCE kinase assay hFLT3 (S1 assay 35); format: biochemical; conditions: read-out: hFLT3 LANCE summarized IC50
T2 construct: purchased Cerep (LANCE kinase assay platform, contract assay)
T2 sequence (P36888 27-993): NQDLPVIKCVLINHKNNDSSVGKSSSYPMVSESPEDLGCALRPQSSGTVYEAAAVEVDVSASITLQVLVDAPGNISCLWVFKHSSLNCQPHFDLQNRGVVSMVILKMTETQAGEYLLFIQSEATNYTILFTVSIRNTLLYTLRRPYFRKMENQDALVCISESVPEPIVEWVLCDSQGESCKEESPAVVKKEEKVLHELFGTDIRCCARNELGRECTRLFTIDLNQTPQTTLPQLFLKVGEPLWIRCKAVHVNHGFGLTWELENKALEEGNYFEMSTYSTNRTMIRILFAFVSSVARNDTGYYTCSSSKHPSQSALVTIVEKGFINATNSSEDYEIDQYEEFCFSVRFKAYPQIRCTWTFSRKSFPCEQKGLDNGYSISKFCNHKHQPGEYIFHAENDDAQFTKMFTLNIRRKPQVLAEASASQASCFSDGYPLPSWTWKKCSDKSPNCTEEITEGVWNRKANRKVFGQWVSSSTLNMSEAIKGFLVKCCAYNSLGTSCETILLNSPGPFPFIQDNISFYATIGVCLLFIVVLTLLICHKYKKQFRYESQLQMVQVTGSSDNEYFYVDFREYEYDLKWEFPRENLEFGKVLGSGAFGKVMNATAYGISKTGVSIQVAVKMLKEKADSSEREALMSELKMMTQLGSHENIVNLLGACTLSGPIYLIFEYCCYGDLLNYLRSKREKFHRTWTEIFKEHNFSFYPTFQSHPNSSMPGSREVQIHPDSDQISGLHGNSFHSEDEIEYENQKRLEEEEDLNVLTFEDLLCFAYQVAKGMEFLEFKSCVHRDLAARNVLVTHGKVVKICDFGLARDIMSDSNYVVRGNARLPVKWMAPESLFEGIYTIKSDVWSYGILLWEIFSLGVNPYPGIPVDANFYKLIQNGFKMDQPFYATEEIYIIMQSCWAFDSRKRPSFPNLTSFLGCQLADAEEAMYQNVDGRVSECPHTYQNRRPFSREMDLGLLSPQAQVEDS

hp70S6K1 (RPS6KB1) = biological target: T3, hp70S6K1 (RPS6KB1) (Homo sapiens, UniProt P23443); assay: Cerep LANCE kinase assay hp70S6K1 (S1 assay 31); format: biochemical; conditions: read-out: hp70S6K1 LANCE summarized IC50
T3 construct: purchased Cerep (LANCE kinase assay platform, contract assay)
T3 sequence (P23443 whole entry): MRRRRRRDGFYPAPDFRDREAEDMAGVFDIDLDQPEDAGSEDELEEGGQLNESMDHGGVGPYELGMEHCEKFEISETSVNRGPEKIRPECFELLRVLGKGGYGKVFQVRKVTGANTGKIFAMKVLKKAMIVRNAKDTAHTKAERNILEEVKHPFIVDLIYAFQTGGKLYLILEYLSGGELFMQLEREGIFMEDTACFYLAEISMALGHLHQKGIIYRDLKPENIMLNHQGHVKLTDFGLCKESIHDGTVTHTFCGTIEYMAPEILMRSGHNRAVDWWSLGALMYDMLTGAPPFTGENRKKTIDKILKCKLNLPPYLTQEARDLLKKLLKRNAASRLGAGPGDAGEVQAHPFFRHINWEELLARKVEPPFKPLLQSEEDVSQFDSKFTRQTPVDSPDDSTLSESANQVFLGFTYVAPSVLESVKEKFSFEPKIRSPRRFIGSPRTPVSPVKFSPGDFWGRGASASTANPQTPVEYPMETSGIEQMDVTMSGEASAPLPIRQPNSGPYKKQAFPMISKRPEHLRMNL

hGSK3b = biological target: T4, hGSK3b (Homo sapiens, UniProt P49841); assay: Cerep LANCE kinase assay hGSK3b (S1 assay 34); format: biochemical; conditions: read-out: hGSK3b LANCE summarized IC50
T4 construct: purchased Cerep (LANCE kinase assay platform, contract assay)
T4 sequence (P49841 whole entry): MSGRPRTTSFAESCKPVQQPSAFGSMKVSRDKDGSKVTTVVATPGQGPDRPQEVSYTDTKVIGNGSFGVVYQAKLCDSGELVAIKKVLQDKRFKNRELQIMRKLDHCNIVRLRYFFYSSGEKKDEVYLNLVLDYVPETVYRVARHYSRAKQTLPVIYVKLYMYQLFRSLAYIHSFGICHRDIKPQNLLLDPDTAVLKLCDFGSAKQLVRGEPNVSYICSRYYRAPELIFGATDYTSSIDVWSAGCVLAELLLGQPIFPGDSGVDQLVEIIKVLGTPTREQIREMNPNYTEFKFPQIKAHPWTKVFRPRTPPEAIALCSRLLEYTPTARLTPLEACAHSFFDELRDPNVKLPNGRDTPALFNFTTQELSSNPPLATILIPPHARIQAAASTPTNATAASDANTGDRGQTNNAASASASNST

[4] = system: ECFC/ADSC co-culture cell nuclei number; conditions: read-out: VEGF_ADSC\ECFC Angio Hoechst NucArea summarized IC50
[5] = Homo sapiens, basal, Colo 320, read-out: Basal_Viability ATP Colo 320
[6] = Homo sapiens, HeLa, S2 Table, HeLa, 20 = no response at highest concentration
[7] = Homo sapiens, HCT-116, HCT116 pretreated with GSK3b inhibitor, read-out: GSK3b inh pretreated_Viability ATP HCT116
[8] = Homo sapiens, basal, RKO, read-out: Basal_Viability ATP RKO
[9] = Homo sapiens, HCT-116, basal, HCT116, read-out: Basal_Viability ATP HCT116
[10] = Homo sapiens, SW480, basal, SW480, read-out: Basal_Viability ATP SW480
[11] = Rattus norvegicus, INS-1E, read-out: Insulin Secretion
[12] = Homo sapiens, DLD-1, basal, DLD-1, read-out: Basal_Viability ATP DLD-1
[13] = Homo sapiens, SNU-C1, basal, SNU-C1, read-out: Basal_Viability ATP SNU-C1
[14] = Homo sapiens, NCI-H716, read-out: GLP 1 Secretion
[15] = Homo sapiens, basal, HT-29, read-out: Basal_Viability ATP HT-29
[16] = Homo sapiens; read-out: Anti-Angiogenesis
[17] = Homo sapiens, HCT-116, read-out: GSK3b inh pretreated_Viability ATP HCT116
[18] = Mus musculus, C2C12, S2 Table, module primary assay, 20 / 20.1 codes per legend, read-out: Wnt Pathway

In the case of O=C1C2CC=CCC2C(=O)N1SC(Cl)(Cl)Cl (centres unmarked) [captan], the IC50 (Colo320; [5]) is reported as 0.306 µM, the EC50 (HeLa cells; [6]) is reported as greater than 10 µM and the IC50 [1, 7] is reported as 2.21 µM. The IC50 (RKO; [8]) was 0.402 µM, the IC50 (HCT116; [9]) was 1.76 µM and the IC50 (SW480; [10]) was 0.0788 µM. It also gave an EC50 (INS-1E cells; [11]) greater than 10 µM, an IC50 (DLD-1; [12]) of 0.348 µM and an IC50 (SNU-C1; [13]) of 0.903 µM. For the same compound, the EC50 (NCI-H716 cells; [14]) was greater than 10 µM, the IC50 (HT-29; [15]) was 0.5 µM and the EC50 ([2]; Mus musculus, C2C12, read-out: Wnt Pathway) was 0.511 µM. It also gave an IC50 [3, 16] greater than 10 µM.
In the case of O=C(Nc1ccc([N+](=O)[O-])cc1Cl)c1cc(Cl)ccc1O [NCGC00015735-11], the IC50 (Colo320; read-out: Basal_Viability ATP Colo 320 summarized IC50) is reported as 0.00826 µM, the IC50 (hKDR) is reported as greater than 20 µM and the IC50 (hFLT3) is reported as greater than 20 µM. The IC50 (HeLa cells; read-out: Hela CellCycMod PI 2N summarized IC50) was greater than 10 µM, the IC50 (HeLa cells; read-out: Hela CellCycMod PI 4N summarized IC50) was greater than 10 µM and the IC50 (HeLa cells; read-out: Hela CellCycMod PI Cell Number summarized IC50) was 0.144 µM. It also gave an IC50 (HeLa cells; read-out: Hela CellCycMod PI MI summarized IC50) greater than 10 µM, an IC50 (HeLa cells; read-out: Hela CellCycMod PI S Phase summarized IC50) greater than 10 µM and an IC50 ([1]; read-out: GSK3b inh pretreated_Viability ATP HCT116 summarized IC50) of 0.00295 µM. It also gave an IC50 (hp70S6K1 (RPS6KB1)) greater than 20 µM, an IC50 (HCT116; read-out: Basal_Viability ATP HCT116 summarized IC50) of 0.00144 µM and an IC50 (DLD-1; read-out: Basal_Viability ATP DLD-1 summarized IC50) of 0.00349 µM. It also gave an IC50 (hGSK3b) greater than 20 µM, an IC50 ([3]; read-out: VEGF_ADSC\ECFC Angio CD31 TubeArea summarized IC50) of 0.112 µM and an IC50 [4] of 5.81 µM.
With CCCCOC(=O)c1ccc(N)cc1 [Butyl aminobenzoate] the IC50 (Colo320; [5]) was greater than 20 µM, the EC50 (HeLa cells; [6]) was greater than 10 µM and the IC50 [1, 17] was 5.61 µM. It also gave an IC50 (RKO; [8]) of 0.137 µM, an IC50 (HCT116; [9]) greater than 20 µM and an IC50 (SW480; [10]) of 0.586 µM. The EC50 (INS-1E cells; [11]) was greater than 10 µM, the IC50 (DLD-1; [12]) was 4.56 µM and the IC50 (SNU-C1; [13]) was greater than 20 µM. For the same compound, the EC50 (NCI-H716 cells; [14]) was greater than 10 µM, the IC50 (HT-29; [15]) was greater than 20 µM and the EC50 [2, 18] was greater than 10 µM. For the same compound, the IC50 ([3]; Homo sapiens, S2 Table; module primary assay; 20 = no response at highest concentration, 20.1 = inactive in single concentration testing; read-out: Anti-Angiogenesis) was greater than 10 µM.
With O=C(NOCC1CC1)c1ccc(F)c(F)c1Nc1ccc(I)cc1Cl [PD-184352, reference compound] the IC50 (Colo320; Homo sapiens, COLO 320, 72 h, read-out: Colo320 viab. IC50) was 0.85 µM, the IC50 (Colo320; Homo sapiens, COLO 320, read-out: Basal_Viability ATP Colo 320) was 0.848 µM and the EC50 (HeLa cells; Homo sapiens, HeLa) was greater than 10 µM. The IC50 ([1]; Homo sapiens, HCT-116, 72 h, read-out: HCT-116 (GSK3β) viab. IC50) was 0.97 µM, the IC50 [1, 17] was 0.969 µM and the IC50 (RKO; Homo sapiens, RKO, 72 h, read-out: RKO viab. IC50) was 0.003 µM. For the same compound, the IC50 (RKO; Homo sapiens, RKO, read-out: Basal_Viability ATP RKO) was 0.00319 µM, the IC50 (HCT116; Homo sapiens, HCT-116, 72 h, read-out: HCT-116 viab. IC50) was 0.002 µM and the IC50 (HCT116; Homo sapiens, HCT-116, read-out: Basal_Viability ATP HCT116) was 0.00179 µM. For the same compound, the IC50 (SW480; Homo sapiens, SW480, 72 h, read-out: SW480 viab. IC50) was 0.005 µM, the IC50 (SW480; Homo sapiens, SW480, read-out: Basal_Viability ATP SW480) was 0.00495 µM and the EC50 (INS-1E cells; Rattus norvegicus, INS-1E, read-out: Ins. sec. EC50) was greater than 10 µM. It also gave an IC50 (DLD-1; Homo sapiens, DLD-1, 72 h, read-out: DLD-1 viab. IC50) of 2.2 µM, an IC50 (DLD-1; Homo sapiens, DLD-1, read-out: Basal_Viability ATP DLD-1) of 2.16 µM and an IC50 (SNU-C1; Homo sapiens, SNU-C1, 72 h, read-out: SNU-C1 viab. IC50) of 0.017 µM. The IC50 (SNU-C1; Homo sapiens, SNU-C1, read-out: Basal_Viability ATP SNU-C1) was 0.0171 µM, the EC50 (NCI-H716 cells; Homo sapiens, NCI-H716, read-out: GLP1 sec. EC50) was greater than 10 µM and the IC50 (HT-29; Homo sapiens, HT-29, 72 h, read-out: HT-29 viab. IC50) was 0.026 µM. The IC50 (HT-29; Homo sapiens, HT-29, read-out: Basal_Viability ATP HT-29) was 0.0263 µM, the EC50 ([2]; Mus musculus, C2C12, read-out: Wnt pot. EC50) was greater than 10 µM and the IC50 ([3]; Homo sapiens, read-out: Anti-Angio IC50) was 0.37 µM. The IC50 ([3]; Homo sapiens, read-out: Anti-Angiogenesis) was 0.368 µM.
Work on CCCCC(CC)CNC(=N)NC(=N)NCCCCCCNC(=N)NC(=N)NCC(CC)CCCC (centres unmarked) [alexidine] yielded an IC50 (Colo320; [5]) of 0.0041 µM, an EC50 (HeLa cells; [6]) greater than 10 µM and an IC50 [1, 7] of 0.396 µM. It also gave an IC50 (RKO; [8]) of 0.223 µM, an IC50 (HCT116; [9]) of 0.71 µM and an IC50 (SW480; [10]) of 0.333 µM. For the same compound, the EC50 (INS-1E cells; [11]) was greater than 10 µM, the IC50 (DLD-1; [12]) was 0.0197 µM and the IC50 (SNU-C1; [13]) was 0.0941 µM. It also gave an EC50 (NCI-H716 cells; [14]) greater than 10 µM, an IC50 (HT-29; [15]) of 0.0302 µM and an EC50 [2, 18] greater than 10 µM. The IC50 [3, 16] was 0.408 µM.
CCN1C(=CC=Cc2sc3ccccc3[n+]2CC)Sc2ccccc21 [3,3'-diethylthiacarbocyanine iodide] was tested, and the IC50 (Colo320; read-out: Basal_Viability ATP Colo 320) was 0.562 µM, the EC50 (HeLa cells) was greater than 10 µM and the IC50 ([1]; read-out: GSK3b inh pretreated_Viability ATP HCT116) was 0.00875 µM. The IC50 (RKO; read-out: Basal_Viability ATP RKO) was 0.00898 µM, the IC50 (HCT116; read-out: Basal_Viability ATP HCT116) was 0.00957 µM and the IC50 (SW480; read-out: Basal_Viability ATP SW480) was 0.172 µM. The EC50 (INS-1E cells; read-out: Insulin Secretion) was greater than 10 µM, the IC50 (DLD-1; read-out: Basal_Viability ATP DLD-1) was 0.0148 µM and the IC50 (SNU-C1; read-out: Basal_Viability ATP SNU-C1) was 0.0172 µM. The EC50 (NCI-H716 cells; read-out: GLP 1 Secretion) was greater than 10 µM, the IC50 (HT-29; read-out: Basal_Viability ATP HT-29) was 0.00838 µM and the EC50 ([2]; read-out: Wnt Pathway) was greater than 10 µM. It also gave an IC50 ([3]; read-out: Anti-Angiogenesis) greater than 10 µM.
